# Measurements published in article PMC12380353, “MK-8527 is a novel inhibitor of HIV-1 reverse transcriptase translocation with potential for extended-duration dosing” (PLOS Biology, 2025).
# Experiments:
# HIV-2ROD = assay: Cytoprotection assay in CEM-SS cells, HIV-2; assay type: cell-based; settings: Human immunodeficiency virus 2, 144 h, 6 days, read-out: Antiviral potency as IC50, HIV-2 – CEM-SS cells
# Procedure: The antiviral activity of MK-8527 against HIV-1 and HIV-2 was determined in a cytoprotection assay in CEM-SS cells at ImQuest BioSciences (Fredrick, MD, USA). Briefly, CEM-SS cells (National Institute of Health AIDS Research and Reference Reagent Program) were passaged in RPMI 1640 supplemented with 10% heat-inactivated FBS, 2 mM L-glutamine, 100 U/mL penicillin and 100 µg/mL streptomycin prior to use in the antiviral assay. On the day preceding the assay, the cells were split 1:2 to ensure they were in an exponential growth phase at the time of infection. The cells were resuspended at 2.5 × 10^3 cells per well in cell culture medium and added to the drug-containing microtiter plates at 50 µL per well. MK-8527 was tested in triplicate for each experiment, with 12 test concentrations added at 100 µL per well.
# Lymphocyte-tropic virus strains HIV-1IIIB or HIV-2ROD (NIH AIDS Research and Reference Reagent Program) were diluted into tissue culture medium such that the amount of virus added to each well in a volume of […] corresponded to the amount determined to yield 85% to 95% cell killing in the untreated virus control wells at 6–7 days. Virus was added immediately after cells were added to the 96-well microtiter plates.
# The IC50 for MK-8527 antiviral activity was determined using 4-parameter curve fit calculations.
# [1] = test system: panel of 114 enzyme and receptor binding assays; assay: Off-target panel of 114 enzyme and receptor-binding assays; settings: for Off-target activity: 10 μM, panel of 114 assays; for IC50: tested at 10 µM, 114 assays, read-out: IC50 in all off-target assays
# Procedure: MK-8527 and MK-8527-TP were evaluated at 10 µM final concentration at Eurofins Panlabs (Taipei, Taiwan) for activity against a panel of 114 enzyme, radioligand binding, and cellular assays, including 70 G-protein coupled receptor, 13 ion channel, 7 kinase, 7 nuclear hormone receptor, 6 transporter, 4 protease, 2 neurotransmitter metabolism, 2 lipid metabolism, 2 oxidoreductase, and 1 phosphodiesterase assays.
# HIV-1 RT = molecular target: T1, HIV-1 RT (Human immunodeficiency virus type 1 group M subtype B, UniProt P04585); assay: HIV-1 RT biochemical (ECL) assay; settings: purified recombinant RT, n = 8; read-out: IC50, RNA-dependent DNA polymerization
# T1 construct: Full-length WT RT protein was expressed in Escherichia coli BL21(DE3) cells; made in house; host or cells: Escherichia coli BL21(DE3)
# Procedure: Full-length WT RT protein was expressed in Escherichia coli BL21(DE3) cells and purified as described previously. The electrochemiluminescence (ECL) RT biochemical assay was performed based on the previously described protocol.
# Briefly, the heterodimeric nucleic acid substrate used in the HIV-1 RT polymerase reactions was generated by annealing biotinylated DNA primer to a 500-nucleotide RNA template. The HIV-1 RT enzyme (final concentration of 50 pM) was combined with an inhibitor or DMSO (10% DMSO in the final reaction mixture) in assay buffer containing 62.5 mM Tris-HCl, pH 7.8, 1.25 mM dithiothreitol, 7.5 mM MgCl2, 100 mM KCl, 0.03% 3-[(3-cholamidopropyl)-dimethylammonio]-1-propanesulfonate, and 0.125 mM ethylene glycol tetraacetic acid). This mixture was preincubated for 30 min at room temperature in microtiter plates. The polymerization reaction was initiated by the addition of template:primer substrate (final concentration, 16.6 nM), and dNTPs (final concentrations were 2 μM for deoxycytidine triphosphate [dCTP], deoxyguanosine triphosphate [dGTP], and dATP and 66.6 nM for ruthenylated deoxyuridine triphosphate [Ru-dUTP]). […] The mixtures were incubated at room temperature for 60 min prior to the quantification of the reaction product via an ECL 6000 imager instrument. […]
# [2] = molecular target: human DNA polymerases α and β and human mitochondrial DNA polymerase γ; assay: Human DNA polymerase inhibition assays (summary for α, β, γ); assay type: biochemical; settings: read-out: IC50 values against human DNA polymerases tested
# Procedure: The activities of human DNA polymerases α, β, and γ were measured in radiolabeled nucleotide incorporation assays. TP was prepared as a 10-point titration with 3-fold serial dilution in water. Reaction buffers for the DNA polymerase α and β assays both contained 20 mM Tris pH 7.5, 10 mM MgCl2, 50 μM EDTA, 200 μg/mL bovine serum albumin (BSA), 2 mM dithiothreitol (DTT), 1.6 μM each of dNTP (dATP, dCTP, dGTP, and dTTP), 20 μCi/mL [α33P]dATP, 0.1 mg/mL gapped activated fish sperm DNA template, test compound, and 0.005 U/μL DNA polymerase α or 0.0025 U/μL DNA polymerase β. The reaction buffer for DNA polymerase γ contained 20 mM Tris pH 8, 10 mM MgCl2, 50 mM KCl, 100 μg/mL BSA, 2 mM β-mercaptoethanol, 10 μM of each dNTP (dATP, dCTP, dGTP, and dTTP), 20 μCi/mL [α33P]dATP, 0.04 mg/mL gapped activated fish sperm DNA template, test compound, and 0.0003 μg/μL DNA polymerase γ. The 50-μL reactions were incubated at room temperature for 30 min (for β and γ) or 90 min (for α) before terminating with the addition of 50 μL 500 mM EDTA. The reaction mixtures were transferred to a Millipore DE81 filter plate (EMD Millipore; Hayward, CA), washed with 0.5 M sodium phosphate pH 7.0, and dried. After addition of 40 μL scintillant to each well, the incorporation of labeled dATP was determined with a microplate counter (TopCount NXT HTS; PerkinElmer, Shelton, CA, USA).
# HIV RT = molecular target: T2, HIV RT (Human immunodeficiency virus type 1 group M subtype B, UniProt P04585); assay: HIV-RT primer extension assay (chain termination); assay type: biochemical; settings: 1 µM each dNTP
# T2 construct: HIV RT (final concentration, 1,200 nM)
# Procedure: The reaction protocol was adapted from previous work. Primers and template used for this assay are described in Fig 8A.
# All reagent stocks were in a base assay buffer consisting of 50 mM Tris pH 7.5 and 50 mM NaCl in nuclease-free water. […] Samples were then heated to 95 °C for 10 min prior to storage at −20 °C until being resolved by polyacrylamide gel electrophoresis with 7 M urea.
smiles,measurement,setting,value
"C#C[C@]1(CO)O[C@@H](n2ccc3c(N)nc(Cl)nc32)C[C@@H]1O [Compound 12, (2R,3S,5R)-5-(4-amino-2-chloro-7H-pyrrolo[2,3-d]pyrimidin-7-yl)-2-ethynyl-2-(hydroxymethyl)tetrahydrofuran-3-ol]",IC50,HIV-2ROD,7 pM
same,Off-target activity,[1],no off-target activities
same,IC50,[1],> 10 µM
C#C[C@]1(COP(=O)(O)OP(=O)(O)OP(=O)(O)O)O[C@@H](n2ccc3c(N)nc(Cl)nc32)C[C@@H]1O [MK-8527-TP],IC50,HIV-1 RT,813 ± 238 nM
same,Off-target activity,[1],no off-target activities
same,IC50,[1],> 10 µM
same,IC50,[2],≥ 95 µM
same,Chain termination mechanism (ICT/DCT),HIV RT,both ICT and DCT occurred
